pIC50: −log10 of the molar value.
Key:
[1] = biological target: T1, human-derived recombinant BTK protein (Homo sapiens, UniProt Q06187); assay: BTK activity inhibition assay (HTRF kinase assay); type: biochemical; details: 40 μM ATP
T1 construct: purchased Carna Biosciences 08-180
Description: In vitro kinase assay was used to evaluate the effects of compounds of the present invention on BTK activity (Table 1).
By using the homogeneous time-resolved fluorescence (HTRF) kinase detection kit (Cisbio, catalog number 62TK0PEC), the enzymatic activity of BTK is determined by detecting the phosphorylation level of the substrate in the kinase reaction. […]
(§1) Add 4 μL test compound solution and 2 μL kinase reaction solution to a 384-well detection plate (Corning, catalog number 3674), mix well and incubate at room temperature for 15 minutes; add 4 μL substrate reaction solution and incubate for 50 minutes; add 10 μL detection buffer, mix well and stand for 60 minutes; detect signal at 620 nm and 665 nm using an Envision plate reader (Perkin Elmer). The signal value (absorbance at 665 nm/absorbance at 620 nm) is positively correlated with the degree of phosphorylation of the substrate, thereby detecting the kinase activity of BTK. […] The inhibition curve is plotted and the corresponding IC50 value of the test compound is calculated using XLfit software (ID Business Solutions Ltd., UK).

[2] = Brain penetration activity test in rats; type: in vivo; details: for Brain penetration (result in words): male Sprague Dawley rats, oral 5 mg/kg; for Kp at 8 h: male, Sprague Dawley, rat, brain tissue homogenate / plasma, po, 5 mg/kg, AUCbrain/AUCplasma, samples at 1, 2, 4 and 8 hours
Description: “CSF/plasma ratio (Kp, CSF)” refers to the ratio of a compound concentration in cerebrospinal fluid (CSF) vs. in plasma. The ability of a compound to cross blood-brain barrier (BBB) is assessed by measuring its concentrations in CSF and plasma in rodents, and determining the ratio (Kp, CSF).
Compound A or B in a 0.5 mg/mL solution containing 5% N,N-dimethylacetamide+10% solutol+85% saline was orally administered to twelve male Sprague Dawley rats at a dose of 5 mg/kg. Samples of plasma, brain tissue homogenate (for measuring Kp, brain) and cerebrospinal fluid (for measuring Kp, CSF) were collected at 1, 2, 4 and 8 hours after administration (from three animals at each time point).
The concentrations of the compound in plasma, brain tissue homogenate, and CSF were quantified by LC-MS/MS using an API-4500 mass spectrometer, respectively. The limit of quantification (LOQ) of analysis was 1 ng/mL. The pharmacokinetic (PK) parameters were calculated by the non-compartmental method using WinNonlin. Each of Kp, brain and Kp, CSF was calculated as AUCbrain/AUCplasma and AUCCSF/AUCplasma, respectively.

[3] = biological target: T2, human recombinant BTK C481S protein (Homo sapiens, UniProt Q06187, C481S); assay: BTK C481S activity inhibition assay (HTRF kinase assay); type: biochemical; details: 35 μM ATP
T2 construct: made in house
T2 sequence (Q06187 whole entry C481S): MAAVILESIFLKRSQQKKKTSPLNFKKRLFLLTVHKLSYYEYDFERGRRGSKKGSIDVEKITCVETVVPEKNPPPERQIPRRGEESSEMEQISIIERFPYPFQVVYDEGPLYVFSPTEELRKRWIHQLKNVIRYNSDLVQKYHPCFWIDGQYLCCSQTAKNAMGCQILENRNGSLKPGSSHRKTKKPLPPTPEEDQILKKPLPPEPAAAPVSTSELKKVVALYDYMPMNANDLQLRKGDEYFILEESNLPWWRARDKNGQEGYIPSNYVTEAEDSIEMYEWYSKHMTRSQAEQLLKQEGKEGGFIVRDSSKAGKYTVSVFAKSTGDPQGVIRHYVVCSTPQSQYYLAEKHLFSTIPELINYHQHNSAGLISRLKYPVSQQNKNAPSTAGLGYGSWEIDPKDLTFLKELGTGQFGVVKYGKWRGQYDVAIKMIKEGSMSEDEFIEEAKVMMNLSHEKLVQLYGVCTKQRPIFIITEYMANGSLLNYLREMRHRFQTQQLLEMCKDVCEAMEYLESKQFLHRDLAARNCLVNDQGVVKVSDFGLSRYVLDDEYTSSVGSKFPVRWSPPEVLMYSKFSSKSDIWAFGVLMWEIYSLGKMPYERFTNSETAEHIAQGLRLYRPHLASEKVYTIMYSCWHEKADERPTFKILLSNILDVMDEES
Description: In vitro kinase assay was used to evaluate the effects of compounds of the present invention on BTK C481S activity (Table 1).
By using the homogeneous time-resolved fluorescence (HTRF) kinase detection kit (Cisbio, catalog number 62TK0PEC), the enzymatic activity of BTK C481S is determined by detecting the phosphorylation level of the substrate in the kinase reaction. […]
as §1, with “BTK C481S.” for “BTK.”

T1 sequence (Q06187 whole entry): as the sequence (Q06187 whole entry C481S) above, with S481C counted along it

| SMILES | pIC50 [1] | Brain penetration (result in words) [2] | Kp at 8 h [2] | pIC50 [3] |
| --- | --- | --- | --- | --- |
| COc1ccc(F)cc1C(=O)NCc1ccc(-c2nc(C34CCC(C(=O)O)(CC3)CC4)n3ncnc(N)c23)cc1 [Compound A, 4-(4-amino-5-(4-((5-fluoro-2-methoxybenzamido)methyl)phenyl)imidazo[5,1-f][1,2,4]triazin-7-yl)bicyclo[2.2.2]octane-1-carboxylic acid] | 9.15 | non-brain penetrants | 0.0355 | 8.89 |
| COc1ccc(F)cc1C(=O)NCc1ccc(-c2nc(C34CCC(C(=O)N5CCOCC5)(CC3)CC4)n3ncnc(N)c23)cc1 [Compound B, N-(4-(4-amino-7-(4-(morpholine-4-carbonyl)bicyclo[2.2.2]octan-1-yl)imidazo[5,1-f][1,2,4]triazin-5-yl)benzyl)-5-fluoro-2-methoxybenzamide] | 9.00 | non-brain penetrants | 0.0315 | 8.92 |
